US20060130162A1, “Shrimp and the production thereof” (priority 2002, published 2006)
“And” between values parts separate entries of the source, which are not always exact repeats. Equal entries are not always repeated.

Tested on: Juvenile shrimp
Assay: Carotenoid content of shrimp fed lutein-enriched Designer Diet (HPLC carotenoid analysis)
Type: in vivo
Parameters: AsX (astaxanthin) content of shrimp / Lutein content of shrimp / Other carotenoid content of shrimp / Total carotenoid content of shrimp / AsX (astaxanthin) content of shrimp, Mean / Lutein content of shrimp, Mean / Other carotenoid content of shrimp, Mean / Total carotenoid content of shrimp, Mean: unit not given here
Method: Juvenile shrimp (1-5 g) were cultured in 20 L tanks (5-10 shrimp per tank) at 23 degrees Celsius using standard shrimp diets (e.g., Rangen 35/2.5 shrimp diet). Test diets were prepared containing a 2:1 mixture of Rangen control feed with Lutein (Twin Labs) for a final lutein concentration in the diet of 8g/kg diet. Shrimp were fed at 0.3% body weight 2×/day for the duration of the experiment.
Following 14 days of feeding, the shrimp were collected, frozen to −20° C. and lyophilized prior to chemical analysis.

[1] = Mean of lutein group, lutein 8g/kg diet, 14 days of feeding
[2] = individual sample, lutein 8g/kg diet, 14 days of feeding

CC1=C[C@H](O)CC(C)(C)[C@H]1/C=C/C(C)=C/C=C/C(C)=C/C=C/C=C(C)/C=C/C=C(C)/C=C/C1=C(C)C[C@@H](O)CC1(C)C [Lutein]
A/L (astaxanthin / lutein), Mean [1]: 2.23.
A/T (astaxanthin / total carotenoids), Mean [1]: 53%
AsX (astaxanthin) content of shrimp, Mean [1]: 6.24
L + O/T (lutein + other / total carotenoids), Mean [1]: 47%
L/T (lutein / total carotenoids), Mean [1]: 33%
Lutein content of shrimp, Mean [1]: 4.64
Other carotenoid content of shrimp, Mean [1]: 1.62
Total carotenoid content of shrimp, Mean [1]: 12.49
Effect of lutein enrichment on shrimp appearance (FIG. 1) (before cooking and after cooking, compared with non-enriched shrimp): larger, more colorful
A/L (astaxanthin / lutein) [2]: 3.79 and 1.80 and 0.49 and 1.09 and 3.99
A/T (astaxanthin / total carotenoids) [2]: 68% and 54% and 30% and 45% and 70%
AsX (astaxanthin) content of shrimp [2]: 6.45 and 4.91 and 4.63 and 8.37 and 6.82
L + O/T (lutein + other / total carotenoids) [2]: 32% and 46% and 70% and 55% and 30%
L/T (lutein / total carotenoids) [2]: 18% (2×) and 30% and 61% and 41%
Lutein content of shrimp [2]: 1.70 and 2.73 and 9.39 and 7.65 and 1.71
Other carotenoid content of shrimp [2]: 1.38 and 1.40 and 1.47 and 2.70 and 1.15
Total carotenoid content of shrimp [2]: 9.53 and 9.04 and 15.49 and 18.72 and 9.68
